This assay has as its target T1, vanilloid receptor 1 (VR1/TRPV1 receptor) (Homo sapiens, UniProt Q8NER1).
T1 construct: expressed in transfected cells; host or cells: CHO K1
Briefly: Functional testing on the vanilloid receptor 1 (FLIPR Ca2+ influx assay, capsaicin stimulation). It is filed as cell-based. The settings on record: Cap = capsaicin; human being; Ki from IC50 by the Cheng-Prusoff equation; read-out: (f) Ki (human being) [nM] Cap. On the procedure: Furthermore, preference may be given to compounds according to the invention that cause a 50 percent displacement of capsaicin, which is present at a concentration of 100 nM, in a FLIPR assay with CHO K1 cells which were transfected with the human VR1 gene at a concentration of less than 2,000 nM, preferably less than 1,000 nM, particularly preferably less than 300 nM, most particularly preferably less than 100 nM, even more preferably less than 75 nM, additionally preferably less than 50 nM, most preferably less than 10 nM.
In the process, the Ca^2+ influx is quantified in the FLIPR assay with the aid of a Ca^2+-sensitive dye (type Fluo-4, Molecular Probes Europe BV, Leiden, the Netherlands) in a fluorescent imaging plate reader (FLIPR, Molecular Devices, Sunnyvale, USA), as described hereinafter.
I. Functional Testing Carried Out on the Vanilloid Receptor 1 (VR1/TRPV1 Receptor) […]
The number of cells in the suspension is set to 3×10^5 per mL and 150 μL of this suspension are in each case introduced into a recess in the cell culture plates coated as described hereinbefore. In the incubator the plates are left for two to three days at 37° C., 5% by volume of CO2 and 95% relative humidity. Subsequently, the cells are loaded with 2 μM of Fluo-4 and 0.01% by volume of Pluronic F127 (Molecular Probes Europe BV, Leiden, the Netherlands) in HBSS buffer (Hank's buffered saline solution, Gibco Invitrogen GmbH, Karlsruhe, Germany) for 30 min at 37° C., washed 3 times with HBSS buffer and after further incubation for 15 minutes at room temperature used for Ca^2+ measurement in a FLIPR assay. The Ca^2+ dependent fluorescence is in this case measured before and after the addition of substances (λex=488 nm, λem=540 nm). Quantification is carried out by measuring the highest fluorescence intensity (FC, fluorescence counts) over time.
The FLIPR protocol consists of 2 substance additions. First the compounds to be tested (10 μM) are pipetted onto the cells and the Ca^2+ influx is compared with the control (capsaicin 10 μM). This provides the result in % activation based on the Ca^2+ signal after the addition of 10 μM of capsaicin (CP). After 5 minutes' incubation, 100 nM of capsaicin are applied and the Ca^2+ influx is also determined.
Desensitising agonists and antagonists lead to suppression of the Ca^2+ influx. The % inhibition is calculated compared to the maximum achievable inhibition with 10 μM of capsazepine.
Triple analyses (n=3) are carried out and repeated in at least 3 independent experiments (N=4).
Starting from the percentage displacement caused by different concentrations of the compounds to be tested of general formula I, IC50 inhibitory concentrations which cause a 50-percent displacement of capsaicin were calculated. Ki values for the test substances were obtained by conversion by means of the Cheng-Prusoff equation (Cheng, Prusoff; Biochem. Pharmacol. 22, 3099-3108, 1973).
The affinity of the compounds according to the invention for the vanilloid receptor 1 (VR1/TRPV1 receptor) was determined as described hereinbefore (pharmacological method I).

T1 sequence (Q8NER1 whole entry): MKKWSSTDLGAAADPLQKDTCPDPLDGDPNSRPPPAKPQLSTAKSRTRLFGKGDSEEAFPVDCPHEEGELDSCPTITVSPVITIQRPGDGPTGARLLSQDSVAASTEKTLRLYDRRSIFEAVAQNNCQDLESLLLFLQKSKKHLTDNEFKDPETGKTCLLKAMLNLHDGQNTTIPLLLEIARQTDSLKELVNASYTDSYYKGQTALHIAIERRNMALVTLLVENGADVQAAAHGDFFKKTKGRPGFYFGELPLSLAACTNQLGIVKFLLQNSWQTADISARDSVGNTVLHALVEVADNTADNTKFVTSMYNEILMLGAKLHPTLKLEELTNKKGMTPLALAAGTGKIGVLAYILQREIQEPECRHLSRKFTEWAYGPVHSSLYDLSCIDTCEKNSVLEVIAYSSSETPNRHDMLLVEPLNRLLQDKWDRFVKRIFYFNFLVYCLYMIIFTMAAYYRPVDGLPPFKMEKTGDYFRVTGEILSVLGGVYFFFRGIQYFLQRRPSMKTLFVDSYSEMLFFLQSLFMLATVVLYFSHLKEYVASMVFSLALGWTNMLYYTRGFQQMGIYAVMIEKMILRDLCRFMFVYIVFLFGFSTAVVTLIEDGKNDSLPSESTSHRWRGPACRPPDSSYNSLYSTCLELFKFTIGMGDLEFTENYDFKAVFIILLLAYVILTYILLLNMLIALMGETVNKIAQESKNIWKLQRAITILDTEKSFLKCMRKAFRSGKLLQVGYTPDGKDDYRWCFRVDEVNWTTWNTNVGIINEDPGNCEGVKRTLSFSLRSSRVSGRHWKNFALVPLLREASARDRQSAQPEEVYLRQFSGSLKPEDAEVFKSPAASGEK

On to `CCS(=O)(=O)NCc1ccc(C(C)C(=O)NCc2ccc(C(F)(F)F)nc2OC(C)C)cc1F` (centres unmarked) [Example 30, 2-(4-(ethylsulfonamidomethyl)-3-fluorophenyl)-N-((2-isopropoxy-6-(trifluoromethyl)pyridin-3-yl)methyl)propanamide], for which the Ki (commonly the equilibrium dissociation constant of an inhibitor or competing ligand from its target) was determined as 70 nM.
Turning to `CCCCOc1nc(C(F)(F)F)ccc1CNC(=O)C(C)c1ccc(CNS(=O)(=O)CC)c(F)c1` (centres unmarked) [Example 31, N-((2-butoxy-6-(trifluoromethyl)pyridin-3-yl)methyl)-2-(4-(ethylsulfonamidomethyl)-3-fluorophenyl)propanamide], the Ki stood at 15 nM.
Consider `CC(C)Oc1nc(C(F)(F)F)ccc1CNC(=O)Nc1ccc(CNS(N)(=O)=O)cc1` [Example 32, 1-{[2-isopropoxy-6-(trifluoromethyl)pyridin-3-yl]methyl}-3-{4-[(sulfamoylamino)methyl]phenyl}urea], for which the Ki turned out to be 10 nM.
For the compound `CCCCOc1nc(C(F)(F)F)ccc1CNC(=O)Nc1ccc(CNS(N)(=O)=O)cc1` [Example 33, 1-{[2-butoxy-6-(trifluoromethyl)pyridin-3-yl]methyl}-3-{4-[(sulfamoylamino)methyl]phenyl}urea], the Ki stood at 8 nM.
As for `NS(=O)(=O)NCc1ccc(NC(=O)NCc2ccc(C(F)(F)F)nc2OC2CCCC2)cc1` [Example 34, 1-{[2-cyclopentyloxy-6-(trifluoromethyl)pyridin-3-yl]methyl}-3-{4-[(sulfamoylamino)methyl]phenyl}urea], the figure is 1 nM.
As for `CCOc1nc(C(F)(F)F)ccc1CNC(=O)Nc1ccc(CNS(N)(=O)=O)c(F)c1` [Example 35, 1-{3-fluoro-4-[(sulfamoylamino)methyl]phenyl}-3-{[2-ethoxy-6-(trifluoromethyl)pyridin-3-yl]methyl}urea], the figure is 16 nM; as for `CC(C)Oc1nc(C(F)(F)F)ccc1CNC(=O)Nc1ccc(CNS(N)(=O)=O)c(F)c1` [Example 36, 1-{3-fluoro-4-[(sulfamoylamino)methyl]phenyl}-3-{[2-isopropoxy-6-(trifluoromethyl)pyridin-3-yl]methyl}urea], 6 nM; as for `CCCCOc1nc(C(F)(F)F)ccc1CNC(=O)Nc1ccc(CNS(N)(=O)=O)c(F)c1` [Example 37, 1-{3-fluoro-4-[(sulfamoylamino)methyl]phenyl}-3-{[2-butoxy-6-(trifluoromethyl)pyridin-3-yl]methyl}urea], 7 nM.
Regarding `NS(=O)(=O)NCc1ccc(NC(=O)NCc2ccc(C(F)(F)F)nc2OC2CCCC2)cc1F` [Example 38, 1-{3-fluoro-4-[(sulfamoylamino)methyl]phenyl}-3-{[2-cyclopentyloxy-6-(trifluoromethyl)pyridin-3-yl]methyl}urea], the Ki is 5 nM.
The result for `CC(C(=O)NCc1ccc(C(F)(F)F)nc1SC1CCCCC1)c1ccc(CNS(C)(=O)=O)c(F)c1` (centres unmarked) [Example 43, N-((2-(cyclohexylthio)-6-(trifluoromethyl)pyridin-3-yl)methyl)-2-(3-fluoro-4-(methylsulfonamidomethyl)phenyl)propanamide] reads 44 nM; that for `CC(C(=O)NCc1ccc(C(F)(F)F)nc1-c1ccc2cc[nH]c2c1)c1ccc(CNS(C)(=O)=O)c(F)c1` (centres unmarked) [Example 44, N-((2-(1H-indol-6-yl)-6-(trifluoromethyl)pyridin-3-yl)methyl)-2-(3-fluoro-4-(methylsulfonamidomethyl)phenyl)propanamide], 83 nM.
On to `CC(C(=O)NCc1ccc(C(F)(F)F)nc1-c1ccc2c(c1)OCO2)c1ccc(CNS(C)(=O)=O)c(F)c1` (centres unmarked) [Example 45, N-((2-(benzo[d][1,3]dioxol-5-yl)-6-(trifluoromethyl)pyridin-3-yl)methyl)-2-(3-fluoro-4-(methylsulfonamidomethyl)phenyl)propanamide], for which the Ki amounted to 59 nM.
Consider `CC(C(=O)NCc1ccc(C(F)(F)F)nc1-c1ccoc1)c1ccc(CNS(C)(=O)=O)c(F)c1` (centres unmarked) [Example 46, 2-(3-fluoro-4-(methylsulfonamidomethyl)phenyl)-N-((2-(furan-3-yl)-6-(trifluoromethyl)pyridin-3-yl)methyl)propanamide], for which the Ki was found to be 46 nM.
The result for `CC(C(=O)NCc1ccc(C(F)(F)F)nc1-c1cccs1)c1ccc(CNS(C)(=O)=O)c(F)c1` (centres unmarked) [Example 47, 2-(3-fluoro-4-(methylsulfonamidomethyl)phenyl)-N-((2-(thiophen-2-yl)-6-(trifluoromethyl)pyridin-3-yl)methyl)propanamide] reads 41 nM.

For the origin of these results see US20130079373A1, “Substituted Methanesulfonamide Derivatives as Vanilloid Receptor Ligands” (priority 2011, published 2013).
